Test results reported in US20050042213A1, “Methods and pharmaceutical compositions for modulating heparanase activation and uses thereof” (InSight Biopharmaceuticals Ltd., priority 2003, published 2005).
Like-named read-outs stand apart in the source and are kept apart here. Values belong to the molecule of their own block, whether it stands above or below them. Where a SMILES comes first, the peptide text is derived from it. Where no end group is shown, it is not given here. [ ]: non-standard residue; d: D form. The star is where a group is joined. Sta = CC(C)C[C@H](N)[C@@H](O)CC(=O)O; Isovaleryl = CC(C)CC(=O)*

What was measured:
Heparanase = target: T1, Heparanase (Homo sapiens, UniProt Q9Y251, K307R); assay: Dimerization assay (H53 hetero-dimer formation, di-methyl-methylene-blue); assay type: biochemical
T1 sequence (Q9Y251 158-543 K307R limits assumed): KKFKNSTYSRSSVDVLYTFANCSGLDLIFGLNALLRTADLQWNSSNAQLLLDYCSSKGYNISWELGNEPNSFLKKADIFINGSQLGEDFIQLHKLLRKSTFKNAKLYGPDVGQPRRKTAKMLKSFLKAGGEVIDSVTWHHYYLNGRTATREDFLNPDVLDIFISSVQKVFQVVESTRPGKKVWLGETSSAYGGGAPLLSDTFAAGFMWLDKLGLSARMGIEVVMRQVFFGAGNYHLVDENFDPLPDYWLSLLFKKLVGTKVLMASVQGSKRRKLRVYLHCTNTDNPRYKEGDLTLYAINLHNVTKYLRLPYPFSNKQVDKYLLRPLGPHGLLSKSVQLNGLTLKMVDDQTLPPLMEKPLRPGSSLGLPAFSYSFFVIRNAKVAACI
T1 sequence (Q9Y251 36-109 limits assumed): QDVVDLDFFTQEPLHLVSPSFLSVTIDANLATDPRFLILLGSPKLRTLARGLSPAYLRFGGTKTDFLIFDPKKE
Text: Dimerization assay—Activation assay using di-methyl-methylene-blue was effected as described in U.S. Pat. No. 6,190,875.

β-FGF = target: T2, β-FGF (Homo sapiens, UniProt P09038); assay: Elisa assay for binding of β-FGF to heparin; conditions: inhibition of β-FGF binding to heparin
T2 construct: purchased Sigma F0291
Protocol: Elisa assay for determination of binding of β-FGF to heparin—96 well microplates were coated overnight with Heparin-albumin (Lizard) and blocked with 1% BSA in PBS with 0.05% Tween and 0.01% thimerosal for 2 hrs. β-FGF was added to the plates at a concentration of 0.8 ng/ml and incubated for 45 min at 23-25° C. The amount of β-FGF bound to heparin was detected using anti-FGF monoclonal antibody (Sigma Cat. # F6162) at a concentration of 2.5 ng/ml and secondary antibodies Sheep anti-mouse IgG linked to horseradish peroxidase (1:3000). TMB (Pierce Cat. #34021) was used as a substrate for peroxidase.
(§1) The plates were read at 450 nm with a reference wavelength of 630 nm using a VERSAmax plate reader. […] Percent inhibition was calculated as compared with the control reactions pre-incubated with 1% DMSO only.

VEGF = target: T3, VEGF (Homo sapiens, UniProt P15692); assay: Elisa assay for binding of VEGF to heparin; conditions: inhibition of VEGF binding to heparin
T3 sequence (P15692 27-191 isoform P15692-4): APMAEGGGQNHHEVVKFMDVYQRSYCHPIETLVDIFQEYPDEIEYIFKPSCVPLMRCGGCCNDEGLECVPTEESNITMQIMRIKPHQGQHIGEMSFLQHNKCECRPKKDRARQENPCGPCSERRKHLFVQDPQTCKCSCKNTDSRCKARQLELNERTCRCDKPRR
Protocol: Elisa assay for determination of binding of VEGF to heparin—96 well microplates were coated overnight with Heparin-albumin (Lizard) and blocked with 1% BSA in PBS with 0.05% Tween and 0.01% thimerosal for 2 hrs. VEGF was added to the plates at a concentration of 2 ng/ml and incubated for 45 min. at 23-25° C. The amount of VEGF bound to heparin was detected using anti-VEGF monoclonal antibody (Sigma Cat. # V4758) at a concentration of 0.26 μg/ml and secondary antibodies Sheep anti-mouse IgG linked to horseradish peroxidase (1:2000). TMB (Pierce Cat. #34021) was used as a substrate for peroxidase.
as §1

pro-heparanase (H60) [1] = target: T4, pro-heparanase (H60) (Homo sapiens, UniProt Q9Y251, K307R); assay: Pro-heparanase activation in a cell-based assay (293 cells, DMB assay); conditions: inhibition of pro-heparanase activation (H60); Table 15
T4 sequence (Q9Y251 36-543 K307R): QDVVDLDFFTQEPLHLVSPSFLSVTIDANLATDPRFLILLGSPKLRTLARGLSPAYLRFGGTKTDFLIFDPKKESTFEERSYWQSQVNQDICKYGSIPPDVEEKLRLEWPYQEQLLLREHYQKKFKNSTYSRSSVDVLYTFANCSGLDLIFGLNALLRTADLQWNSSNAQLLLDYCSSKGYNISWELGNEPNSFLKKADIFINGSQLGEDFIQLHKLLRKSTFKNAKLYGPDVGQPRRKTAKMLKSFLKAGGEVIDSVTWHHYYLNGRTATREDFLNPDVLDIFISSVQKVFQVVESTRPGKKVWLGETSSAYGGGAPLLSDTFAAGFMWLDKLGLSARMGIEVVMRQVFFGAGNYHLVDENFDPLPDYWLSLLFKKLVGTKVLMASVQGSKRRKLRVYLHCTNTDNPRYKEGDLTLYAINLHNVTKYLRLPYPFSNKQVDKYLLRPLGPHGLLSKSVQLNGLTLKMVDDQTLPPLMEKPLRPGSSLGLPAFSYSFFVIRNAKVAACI

HUVEC cell = assay: Cell Migration Assay (Boyden chamber); assay type: cell-based; conditions: Homo sapiens, HUVEC cells, 5 h, read-out: Inhibition of chemotaxis IC50
Protocol: (§2) Cord formation and cell migration assays were executed following explicit directives provided by the inventors of the present invention by the National Cancer Institute (Biological Testing Branch, Developmental Therapeutics Program, DCTD, NCI, Fairview Center, Suite 205, 1003 West 7th Street, Frederick, Md. 21701-8527).
Cell Migration Assay—Migration was assessed using a 48-well Boyden chamber including 8 μm pore size collagen-coated (10 μg/ml rat tail collagen; Collaborative Laboratories) polycarbonate filters (Osmonics, Inc.). The bottom chamber wells included 27-29 μl of DMEM medium alone (baseline) or medium containing chemo-attractant (bFGF, VEGF or Swiss 3T3 cell conditioned medium). The top chambers included 45 μl of HUVEC cell suspension (1×10^6 cells/ml) prepared in DMEM+1% BSA with or without the test compound. Followinf 5 h of incubation at 37° C., the membrane was rinsed with PBS, fixed and stained in Diff-Quick solutions. The filter was placed on a glass slide with the migrated cells facing down and cells on top were removed using a Kimwipe. The testing was performed in 4-6 replicates where five fields were counted from each well. Negative unstimulated control values were subtracted from stimulated control and drug treated values. Data wad plotted as mean migrated cell±S.D. IC50 was calculated from the plotted data.

HUVEC cells = assay: Cord Formation Assay; assay type: cell-based; conditions: Homo sapiens; HUVEC cells on matrigel, 24 h; read-out: Inhibition of cord formation IC50
Protocol: as §2
Cord Formation Assay—Matrigel (60 μl of 10 mg/ml; Collaborative Lab # 35423) was placed in each well of an ice-cold 96-well plate. The plate was incubated at room temperature for 15 minutes and then transferred to 37° C. for 30 minutes to permit matrigel polymerization. Concomitantly with plate coating, HUVEC cells were diluted in EGM-2 (Clonetic # CC3162) at a concentration of 2×10^5 cells/ml. Each test compound was prepared at a 2 fold higher concentration than desired (5 concentration levels) using the same medium. Cells (500 μl) and 2× drug (500 μl) were mixed and 200 μl of this suspension were placed in duplicates on the polymerized matrigel. Following 24 h incubation, triplicate pictures were taken for each concentration using a Bioquant Image Analysis system. Drug effect (IC50) was assessed by comparing to untreated controls and measuring the length of cords formed and number of junctions.

pro-heparanase (H60) [2] = target: T4, pro-heparanase (H60); assay: Processing and activation of pro-heparanase in vitro with cathepsin B and D in the presence of heparin (Western blot, DMB assay); assay type: biochemical; conditions: cathepsin B and/or cathepsin D
Protocol: Western blot analysis—Western blot analysis was performed using rabbit anti-heparanase polyclonal antibodies as described in U.S. Pat. Nos. 6,177,545; 6,531,129; and 6,562,950.
Following a 17 hours incubation at room temperature, reaction products were filtered to a new plate and quantified using di-methyl-methylene-blue, as described in U.S. Pat. No. 6,190,875.
Assay mixtures contained heparin (Sigma, H3393) or heparinomimetic molecules ethane-1,2-disulfonic acid (Sigma, E2269) and heparin disaccharide IVA (Sigma, H0895) for western blot analysis or heparin sepharose beads for activation assays, in 200 mM acetate buffer, pH 5.5, 4 mM EDTA and 8 mM DTT, with either Cathepsin B, Cathepsin D or both. Following a 17 hours of incubation at room temperature, reaction products were examined by western blot analysis or filtered to a new plate and quantified using di-methyl-methylene-blue, as described in U.S. Pat. No. 6,190,875 for activation assay.

293 cell extract = assay: Cleavage of Z-Pro-Lys-Lys-Glu-AMC (Peptide 1) by 293 cell extract and its inhibition by protease inhibitors; assay type: biochemical, human; design: % Inhibition: concentration or dose not given beside the values; conditions: inhibition of Z-Pro-Lys-Lys-Glu-AMC cleavage by 293 cell extract
Protocol: Following a 20 minutes incubation at 37° C., fluorescence released due to proteolytic activity was determined using a BMG POLARstar™ Galaxy fluorometer: excitation at 390 nm and emission at 460 nm.

heparanase (H53) = target: T5, heparanase (H53) (Homo sapiens, UniProt Q9Y251, K307R); assay: Heparanase activity inhibition (H53), DMB assay; assay type: biochemical; conditions: for IC50: heparanase activity inhibition (H53), NI = no inhibition
T5 sequence (Q9Y251 158-543 K307R limits assumed): T1 sequence (Q9Y251 158-543 K307R limits assumed)
T5 sequence (Q9Y251 36-109 limits assumed): T1 sequence (Q9Y251 36-109 limits assumed)
Protocol: At the end of the incubation, the cells were lysed by three consecutive cycles of freezing and thawing in a −80° C. Freezer and a 37° C. shaker. Formation of active heparanase was detected by determination of heparanase activity in DMB assay as described in patent application U.S. Pat. No. 6,190,875B.

pro-heparanase (H60) [3] = target: T4, pro-heparanase (H60); assay: Circular dichroism spectrometry of pro-heparanase
Protocol: Circular Dichroism spectrometry—Circular Dichroism spectra were recorded using a JASCO 500 spetropolarimeter. Far Ultraviolet measurements (260-200 nm) were performed in a 0.1 mm demountable cuvette at 25° C., scanning at a rate of 10 nm/min. Pro-heparanase was assayed at a concentration of 0.72 mg/ml in 20 mM sodium phosphate buffer pH 6.8 supplemented with 300 mM NaCl. Effect of heparin on pro-heparanase spectra was determined at a concentration of 100 μM, and the inhibitor was added at a concentration of 15 μM. Base-line recordings were performed in the presence and absence of heparin to correct the pro-heparanase spectra.

[4] = inhibition of H53 hetero-dimer formation by H8-derived peptides, read-out: IC50 H53

T2 sequence (P09038 143-288): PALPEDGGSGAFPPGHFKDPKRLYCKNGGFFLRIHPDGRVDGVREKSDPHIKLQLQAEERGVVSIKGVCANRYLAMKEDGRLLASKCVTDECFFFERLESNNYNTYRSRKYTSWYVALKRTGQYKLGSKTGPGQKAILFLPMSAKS

Molecule: COCCCN1C(=O)C(=Cc2ccc(-c3ccc(Cl)cc3)o2)SC1=S [Compound 58]
- IC50 (β-FGF): 0.2 µM
- IC50 (VEGF): 0.2 µM
- IC50 (pro-heparanase (H60) [1]): 0.92 µM

Molecule: O=C1/C(=C\c2ccc(-c3ccccc3Cl)o2)SC(=S)N1C1CCS(=O)(=O)C1 (centres unmarked) [Compound 59]
- IC50 (β-FGF): 0.4 µM
- IC50 (HUVEC cell): 0.25 µM
- IC50 (VEGF): 0.4 µM
- IC50 (pro-heparanase (H60) [1]): 0.24 µM
- IC50 (HUVEC cells): 0.4 µM

Molecule: O=S(=O)(O)CCS(=O)(=O)O [Compound E2269, ethane-1,2-disulfonic acid]
- processing of pro-heparanase in vitro (Western blot) (pro-heparanase (H60) [2]): allowed processing of the H60

Molecule: O=C(O)CCCN1C(=O)C(=Cc2ccc(-c3cccc([N+](=O)[O-])c3)o2)SC1=S [Compound 4]
- IC50 (β-FGF): 53.4 µM
- IC50 (VEGF): 17.8 µM
- heparanase activity inhibition (H53) in addition to inhibition of pro-heparanase activation (heparanase (H53)): dual activity
- IC50 (heparanase (H53)): 3 µM
- IC50 (pro-heparanase (H60) [1]): 0.16 µM

Molecule: FLILLGSPKLRTL [Compound P8-8]
- IC50 (Heparanase; [4]): 8 µM

Molecule: O=C(O)CCCN1C(=O)C(=Cc2ccc(-c3ccc(Cl)cc3)o2)SC1=S [Compound 6]
- IC50 (β-FGF): 23.9 µM
- IC50 (HUVEC cell): 4 µM
- IC50 (VEGF): 17.8 µM
- heparanase activity inhibition (H53) in addition to inhibition of pro-heparanase activation (heparanase (H53)): dual activity
- IC50 (heparanase (H53)): 36 µM
- IC50 (pro-heparanase (H60) [1]): 0.87 µM
- IC50 (HUVEC cells): 3.2 µM

Molecule: LRTLARGLSPAYL [Compound P8-5]
- IC50 (Heparanase; [4]): 18 µM

Molecule: PRFLILLGSPKLR [Compound P8-4]
- IC50 (Heparanase; [4]): 2.3 µM

More lines, main results first:

- IC50 (Heparanase; [4]): 5 µM
Molecule: RFLILL [Compound P8-18]

- IC50 (Heparanase; H45-derived peptide, inhibition of H53 hetero-dimer formation, read-out: IC50 Heparanase): 21 µM
Molecule: CTWHHYYLNGRTATR [Pep-25]

- processing of pro-heparanase in vitro (Western blot) (pro-heparanase (H60) [2]): No processing occurred
- activation of pro-heparanase in vitro (heparanase activity) (pro-heparanase (H60) [2]; heparin-sepharose): inhibited this activation
Molecule: CC(C)CC(=O)N[C@H](C(=O)N[C@H](C(=O)N[C@@H](CC(C)C)[C@@H](O)CC(=O)N[C@@H](C)C(=O)N[C@@H](CC(C)C)[C@@H](O)CC(=O)O)C(C)C)C(C)C [pepstatin] (Isovaleryl-VV[Sta]A[Sta]-OH)
- % Inhibition (293 cell extract): 0%

- IC50 (Heparanase; [4]): 1.4 µM
Molecule: PRFLILL [Compound P8-11]

- processing of pro-heparanase in vitro (Western blot) (pro-heparanase (H60) [2]): allowed processing of the H60
Molecule: CC(=O)N[C@H]1C(O)O[C@H](CO)[C@@H](O[C@@H]2OC(C(=O)O)=C[C@H](O)[C@H]2O)[C@@H]1O (some centres unmarked) [heparin disaccharide IVA]

- processing of pro-heparanase in vitro (Western blot) (pro-heparanase (H60) [2]): heparanase was processed by cathepsin D
- conformational change in pro-heparanase (pro-heparanase (H60) [3]): significant conformational change
Molecule: heparin [reference compound]

- IC50 (Heparanase; [4]): 7 µM
Molecule: CPAYLRFGGTKTDFLIFDPLLE [Pep-7]

- IC50 (Heparanase; [4]): 6 µM
Molecule: DPRFLILL [Compound P8-16]
